Data as given in patent US20250144187A1, “COMBINATION OF HYDROLASES AND ANTI-MICROORGANISM DRUGS AND USES THEREOF” (CENTRE FOR EYE AND VISION RESEARCH LIMITED, priority 2023, published 2025).

What was measured:
MRSA [1] = assay: High-throughput screening of 4989 compounds with human lysozyme; assay type: cell-based, Staphylococcus aureus; details: for MRSA Combination / MRSA Drug only: OD600 at 24-hour; for MRSA Combination: compound 2.5 μM + 1 mg/ml lysozyme; for MRSA Drug only: compound 2.5 μM without lysozyme; for MRSA Inhibition ratio (%): compound 2.5 μM + 1 mg/ml lysozyme relative to compound only
Protocol: 1) High-throughput screening. […] Specifically, these compounds were added into bacterial suspensions (1×10^6 CFU/ml) in the […] microliter plate, in which each well contained 50 μl of lysogeny broth (LB) medium with or without 1 mg/ml lysozyme. LB medium in the absence of bacteria served as background group. Then, the real-time growth curves of MRSA were monitored per hour and for 24 hours. Experiments were performed with the biological replicates. Fly analyzing the absorbance 600 nm (OD600) of bacterial culture at the time point of 24-hour, the inhibition ratio (%) was calculated according to (ODcontrol−ODsample)/(ODcontrol−ODbackground)×100%. Here, the relative and apparent inhibition ratios were figured out by using the absorbance of bacterial suspension only containing compound and that without any drug treatment as ODcontrol, respectively. The relative and apparent inhibition ratios indicated the combination effect and potential toxicity of compound in combination effect. Synergy effect was defined as the relative inhibition ratio of ≥90%.

MRSE [2] = assay: as above; assay type: cell-based, Staphylococcus epidermis; details: for MRSE Combination / MRSE Drug only: OD600 at 24-hour; for MRSE Combination: compound 2.5 μM + 1 mg/ml lysozyme; for MRSE Drug only: compound 2.5 μM without lysozyme; for MRSE Inhibition ratio (%): compound 2.5 μM + 1 mg/ml lysozyme relative to compound only
MRSE [3] = assay: High-throughput screening of 1953 FDA-approved compounds with human lysozyme; assay type: cell-based, Staphylococcus epidermis; details: compound 25 μM + 1 mg/ml lysozyme, 24-hour
Protocol: (§1) 1) High-throughput screening. According to standard screening method [Zhong. […] Commun. 11, 523 (2020)], 1953 FDA-approved compounds from our drugs library at a fixed concentrations of 25 μM were screened against methicillin-resistant Staphylococcus aureus (MRSA) and Staphylococcus epidermis (a coagulase negative Staphylococci, MRSE), in combination with human lysozyme. Specifically, these compounds were added into bacterial suspensions (1×10^5 CFU/ml, in LB medium) in the absence or presence of 1 mg/ml lysozyme. LB medium without bacteria served as background group. Then, the real-time growth curvet of MRSA were monitored per hour and for 24 hours. Absorbance at 600 am (OD600) of bacterial culture at the time point of 24-hour was also measured. The inhibition ratio (%) was calculated as (ODcontrol−ODsample)/(ODcontrol−ODbackground)×100%. […] Herein, the relative and apparent inhibition ratios indicated the combination effect and potential toxicity of compound, respectively. Synergy effect was defined as the relative inhibition ratio of ≥90%. All assays were performed in triplicate.

MRSA [4] = assay: as above; assay type: cell-based, Staphylococcus aureus; details: compound 25 μM + 1 mg/ml lysozyme, 24-hour
Protocol: as §1

Compound | MRSA Combination (MRSA [1]) | MRSA Drug only (MRSA [1]) | MRSA Inhibition ratio (%) (MRSA [1]) | MRSE Combination (MRSE [2]) | MRSE Drug only (MRSE [2]) | MRSE Inhibition ratio (%) (MRSE [2]) | Growth inhibition ratio (mean ± SD, %) MRSE (MRSE [3]) | Growth inhibition ratio (mean ± SD, %) MRSA (MRSA [4])
CC(=O)c1c(O)cc(O)c(C(C)=O)c1O [2,4-Diacetylphloroglucinol] | 0.0588 | 0.2097 | 95.09% | 0.0686 | 0.09 | 54.87% | – | –
COC(=O)[C@]12CCC(C)(C)C[C@H]1[C@H]1C(=O)C=C3[C@@]4(C)C=C(C#N)C(=O)C(C)(C)[C@@H]4CC[C@@]3(C)[C@]1(C)CC2 [Bardoxolone Methyl] | – | – | – | – | – | – | 81.67 ± 1.61% | 29.95 ± 40.66%
CC1(C)S[C@@H]2[C@H](NC(=O)Cc3ccccc3)C(=O)N2[C@H]1C(=O)O [Benzylpenicillin potassium] | – | – | – | – | – | – | 3.07 ± 4.93% | 48.39 ± 51.84%
CCCCCCNC(=O)n1cc(F)c(=O)[nH]c1=O [Carmofur] | – | – | – | – | – | – | 78.06 ± 11.38% | 82.5 ± 7.73%
CC/C=C(\C(=O)N[C@@H]1C(=O)N2C(C(=O)OCOC(=O)C(C)(C)C)=C(COC(N)=O)CS[C@H]12)c1csc(N)n1.Cl [Cefcapene Pivoxil Hydrochloride] | – | – | – | – | – | – | 3.23 ± 3.04% | 18.64 ± 7.49%
CO[C@@]1(NC(=O)CSCC#N)C(=O)N2C(C(=O)O)=C(CSc3nnnn3C)CS[C@@H]21 [Cefmetazole sodium] | – | – | – | – | – | – | 6 ± 29.05% | 58.25 ± 13.23%
CCN1CCN(C(=O)N[C@@H](C(=O)N[C@@H]2C(=O)N3C(C(=O)O)=C(CSc4nnnn4C)CS[C@H]23)c2ccc(O)cc2)C(=O)C1=O [Cefoperazone] | – | – | – | – | – | – | −16.2 ± 8.93% | 71.74 ± 5.27%
CO/N=C(\C(=O)N[C@@H]1C(=O)N2C(C(=O)O)=C(Cn3ccc(=N)n3CCO)CS[C@H]12)c1csc(N)n1.O=S(=O)(O)O [Cefoselis Sulfate] | – | – | – | – | – | – | 51.56 ± 10.39% | 40.55 ± 6.2%
CC1=C(C(=O)O)N2C(=O)[C@@H](NC(=O)[C@H](N)C3=CCC=CC3)[C@H]2SC1 [Cefradine] | – | – | – | – | – | – | 33.52 ± 23.07% | 48.66 ± 13.26%
CC(C)(O/N=C(\C(=O)N[C@@H]1C(=O)N2C(C(=O)[O-])=C(C[n+]3ccccc3)CS[C@H]12)c1csc(N)n1)C(=O)O [Ceftazidime Pentahydrate] | – | – | – | – | – | – | 34.84 ± 3.23% | 45.07 ± 6.86%
CO/N=C(\C(=O)N[C@@H]1C(=O)N2C(C(=O)O)=C(CSc3nc(=O)c(=O)[nH]n3C)CS[C@H]12)c1csc(N)n1 [Ceftriaxone Sodium] | – | – | – | – | – | – | 34.56 ± 35.01% | 8.83 ± 1.45%
[H]/N=C(\N/C(=N/[H])NCCCCCCNC(=N)NC(=N)Nc1ccc(Cl)cc1)Nc1ccc(Cl)cc1 [Chlorhexidine 2HCl] | – | – | – | – | – | – | 12.3 ± 18.27% | 94.16 ± 0.25%
CNC[C@H](O)[C@@H](O)[C@H](O)[C@H](O)CO.Nc1nc(-n2cc(C(=O)O)c(=O)c3cc(F)c(N4CC(O)C4)c(Cl)c32)c(F)cc1F [Delafloxacin (meglumine)] | 0.0629 | 0.177 | 90.56% | 0.0639 | 0.1374 | – | – | –
C[C@@H](O)[C@H]1C(=O)N2C(C(=O)O)=C(S[C@@H]3CN[C@H](CNS(N)(=O)=O)C3)[C@H](C)[C@H]12 [Doripenem Hydrate] | – | – | – | – | – | – | 11.18 ± 6.16% | 82.4 ± 5.63%
CCOC(=O)c1ccc(O)c(O)c1 [Ethyl 3,4-dihydroxybenzoate] | 0.064 | 0.5805 | 97.54% | 0.0703 | 0.6328 | 96.68% | – | –
N#C/C(=C1/SC[C@@H](c2ccc(Cl)cc2Cl)S1)n1ccnc1 [Luliconazole] | – | – | – | – | – | – | 22.39 ± 10.76% | −9.69 ± 5.58%
C[C@@H](O)[C@H]1C(=O)N2C(C(=O)O)=C(S[C@@H]3CN[C@H](C(=O)N(C)C)C3)[C@H](C)[C@H]12 [Meropenem Trihydrate] | – | – | – | – | – | – | 20.45 ± 65.79% | 48.19 ± 11.14%
CC1(C)S[C@@H]2[C@H](NC(=O)[C@H](NC(=O)N3CCN(S(C)(=O)=O)C3=O)c3ccccc3)C(=O)N2[C@H]1C(=O)O [Mezlocillin Sodium] | – | – | – | – | – | – | 6.93 ± 8.22% | 90.46 ± 1.59%
CO[C@@]12[C@H](COC(N)=O)C3=C(C(=O)C(C)=C(N)C3=O)N1C[C@@H]1N[C@@H]12 [Mitomycin C] | – | – | – | – | – | – | 39.12 ± 43.57% | 66.02 ± 45.26%
CCC(=O)c1ccc(O)cc1 [Paroxypropione] | 0.0655 | 0.3624 | 95.34% | 0.0445 | 0.5254 | 101.37% | – | –
CO[C@H]1/C=C/O[C@@]2(C)Oc3c(C)c(O)c4c(c3C2=O)C(=O)C=C(NC(=O)/C(C)=C\C=C\[C@H](C)[C@H](O)[C@@H](C)[C@@H](O)[C@@H](C)[C@H](OC(C)=O)[C@@H]1C)C4=O [Rifamycin S] | 0.074 | 0.1545 | 77.78% | 0.0967 | 0.5935 | 91.58% | – | –
CC1(C)S[C@@H]2[C@H](NC(=O)[C@H](N)c3ccccc3)C(=O)N2[C@H]1C(=O)OCOC(=O)[C@@H]1N2C(=O)C[C@H]2S(=O)(=O)C1(C)C [Sultamicillin] | – | – | – | – | – | – | 45.94 ± 13.49% | 58.05 ± 16.75%
C#Cc1cccc(Nc2nc3ccccc3nc2Nc2cccc(C#C)c2)c1.Cl.Cl [TD52 (dihydrochloride)] | 0.0926 | 0.6512 | 93.07% | 0.1057 | 0.402 | – | – | –
CC[C@H]1OC(=O)C[C@@H](O)[C@H](C)[C@@H](O[C@@H]2O[C@H](C)[C@@H](O)[C@H](N(C)C)[C@H]2O)[C@@H](CCN2C[C@H](C)C[C@H](C)C2)C[C@@H](C)C(=O)/C=C/C(C)=C/[C@@H]1CO[C@@H]1O[C@H](C)[C@@H](O)[C@@H](OC)[C@H]1OC [Tilmicosin] | – | – | – | – | – | – | 4.91 ± 8.1% | 91.59 ± 0.63%
SCP1-IN-1 | 0.0766 | 0.1762 | 79.55% | 0.0698 | 0.1091 | 67.64% | – | –
Sertaconazole (nitrate) | 0.2603 | 0.593 | 61.38% | 0.079 | 0.4977 | 93.73% | – | –
